The subject of the experiment is HeLa cell. Kind of experiment: Cell penetration of pep(CPP)-FITC conjugate in HeLa cell line, flow cytometry (FACS). The following applies: HeLa cells, 20 uM FITC-fused peptide, 37° C. for an hour, control = FITC only. The experiment is classed as cell-based, Homo sapiens. The method, then: Homo sapiens cervix adenocarcinoma cell line as HeLa cell lines were purchased from ATCC (American Type Cell Culture). The cells were cultured in MEM supplemented with 10% fetal bovine serum (Invitrogen, USA), Earle's salts, non-essential amino acids, sodium pyruvate and 100 μg/ml penicillin and 10 units/ml streptomycin and cultured at 37° C., 5% CO2 incubator.
Flow cytometry and Confocal microscope analysis were performed to compare the between degree of cellular uptake of the cells were treated with SEQ ID NO: 2 to SEQ ID NO: 178, pep (CPP) and control.
The cell line was divided in a 6-well plate and cultured in a medium containing 10% fetal bovine serum (Invitrogen, USA), 100 μg/ml penicillin, 100 units/ml streptomycin at 37° C. 5% CO2 incubator for 12 hours. After washing the cell line with PBS, starvation was induced in a Minimum Essential Medium for an hour. 20 uM of each carrier peptide was treated and cultured at 37° C. for an hour. After repeating the step of washing the cells with PBS for three times, Trypsin-EDTA was treated form 10 mins at 37° C. to separate the carrier peptide on the outside of the cell. cells were collected with refrigerated PBS and centrifugation was performed to repeat the step of washing the cells for three times. After then, the cells were suspended in 0.5 ml of PBS containing 4% Paraformaldehyde and fluorescence of the cells was analyzed using FACS Calibur (Becton Dickinson). The cellular uptake aspect of control and various peptides combined with FITC was compared and analyzed by MFI (Mean Fluorescence Intensity).
Analysis results shown in FIGS. 2 to 29 are given in detail in Table 7 below.

With “EVRQHREARPALLTSRLRFIPKPDGLRPI (listed as Homo sapiens) [Pep-RIA-58]”, the “cellular uptake, MFI (Mean Fluorescence Intensity)” value (from here on “cellular uptake, MFI”) is recorded as 17.96 ± 0.97.

Turning to “AEVRQHREARPALLTSRLRFIPKPDGL (listed as Homo sapiens) [Pep-RIA-54]”, the “cellular uptake, MFI” value is recorded as 13.71 ± 0.11.

For “EAEVRQHREARPALLTSRLRFIPK (listed as Homo sapiens) [Pep-RIA-8]”, the “cellular uptake, MFI” value was 14.12 ± 0.79.

On to “EVRQHREARPALLTSRLRFIPK (listed as Homo sapiens) [Pep-RIA-6]”, for which the “cellular uptake, MFI” value is 16.09 ± 2.52.

Regarding “ALLTSRLRF (listed as Homo sapiens) [Pep-RIA-140]”, the “cellular uptake, MFI” value is listed as 21.18 ± 0.11.

As for “REARPALLTSRLRFIPK (listed as Homo sapiens) [Pep-RIA-1]”, the “cellular uptake, MFI” value stood at 24.3 ± 0.61.

Regarding “ARP (listed as Homo sapiens) [Pep-RIA-120]”, the “cellular uptake, MFI” value is recorded as 10.04 ± 0.53.

Regarding “ARPALLTSRLR (listed as Homo sapiens) [Pep-RIA-112]”, the “cellular uptake, MFI” value is 15.96 ± 1.24.

“RQHREARPALLTSRLRFIPKPDGL (listed as Homo sapiens) [Pep-RIA-27]”: the “cellular uptake, MFI” value was determined as 19.69 ± 0.49.

For “HREARPALLTSRLRFIPKPDGL (listed as Homo sapiens) [Pep-RIA-29]”, the “cellular uptake, MFI” value came out at 15.26 ± 0.95.

“SRLRFIP (listed as Homo sapiens) [Pep-RIA-165]”: the “cellular uptake, MFI” value was 5.75 ± 0.41.

For “PALLTSRLR (listed as Homo sapiens) [Pep-RIA-132]”, the “cellular uptake, MFI” value stood at 13.72 ± 0.52.

In the case of “LLTS (listed as Homo sapiens) [Pep-RIA-151]”, the “cellular uptake, MFI” value is recorded as 8.81 ± 0.83.

As to “EVRQHREARPALLTSRLRFIPKPDGLRP (listed as Homo sapiens) [Pep-RIA-45]”, the “cellular uptake, MFI” value stood at 14.23 ± 1.65.

As to “LLTSRLRFIPK (listed as Homo sapiens) [Pep-RIA-95]”, the “cellular uptake, MFI” value is reported as 25.79 ± 0.46.

Turning to “REARPALLTSRLRFIPKPDGLRPI (listed as Homo sapiens) [Pep-RIA-63]”, the “cellular uptake, MFI” value is given as 19.72 ± 0.33.

Consider “AEVRQHREARPALLTSRLRFIPKPDGLRPI (listed as Homo sapiens) [Pep-RIA-57]”, for which the “cellular uptake, MFI” value turned out to be 16.75 ± 0.48.

In the case of “ALLT (listed as Homo sapiens) [Pep-RIA-144]”, the “cellular uptake, MFI” value was 14.54 ± 0.21.

As for “ARPAL (listed as Homo sapiens) [Pep-RIA-118]”, the “cellular uptake, MFI” value worked out at 11.41 ± 1.03.

As for “QHREARPALLTSRLRFIPKPDGL (listed as Homo sapiens) [Pep-RIA-28]”, the “cellular uptake, MFI” value was found to be 14.8 ± 0.32.

For “RPA (listed as Homo sapiens) [Pep-RIA-129]”, the “cellular uptake, MFI” value turned out to be 11.18 ± 0.97.

For the substance “EARPALLTSRLRFIPKPD (listed as Homo sapiens) [Pep-RIA-65]”, the “cellular uptake, MFI” value amounted to 12.84 ± 1.11.

Take “LLTSR (listed as Homo sapiens) [Pep-RIA-150]”: the “cellular uptake, MFI” value worked out at 14.51 ± 0.81.

On to “ARPALL (listed as Homo sapiens) [Pep-RIA-117]”, for which the “cellular uptake, MFI” value stood at 15.06 ± 0.58.

On to “VRQHREARPALLTSRLRFIPKPDGLRP (listed as Homo sapiens) [Pep-RIA-46]”, for which the “cellular uptake, MFI” value turned out to be 15.35 ± 0.92.

As for “EARPALLTSRLRFIPKPDGLRPIV (listed as Homo sapiens) [Pep-RIA-71]”, the “cellular uptake, MFI” value worked out at 17.21 ± 0.52.

Regarding “LTSRL (listed as Homo sapiens) [Pep-RIA-157]”, the “cellular uptake, MFI” value is 11.42 ± 0.32.

Turning to “ALLTSRLR (listed as Homo sapiens) [Pep-RIA-107]”, the “cellular uptake, MFI” value was found to be 16.41 ± 1.36.

Take “LRELSEAEVRQHREARPALLTSRLRFIPK (listed as Homo sapiens) [Pep-RIA-13]”: the “cellular uptake, MFI” value was 15.37 ± 1.34.

For “RPALL (listed as Homo sapiens) [Pep-RIA-127]”, the “cellular uptake, MFI” value is recorded as 12.15 ± 0.89.

“TSRLRFIP (listed as Homo sapiens) [Pep-RIA-159]”: the “cellular uptake, MFI” value turned out to be 12.58 ± 1.08.

Turning to “RPALLTSRLRFIPK (listed as Homo sapiens) [Pep-RIA-92]”, the “cellular uptake, MFI” value was 26.28 ± 0.38.

“HREARPALLTSRLRFIPKPDGLRPI (listed as Homo sapiens) [Pep-RIA-62]”: the “cellular uptake, MFI” value is listed as 18.89 ± 0.75.

Take “RPAL (listed as Homo sapiens) [Pep-RIA-128]”: the “cellular uptake, MFI” value is given as 12.41 ± 0.16.

“RPALLTSRLRFI (listed as Homo sapiens) [Pep-RIA-105]”: the “cellular uptake, MFI” value was determined as 19.4 ± 0.59.

Take “PALLTSRLRFIP (listed as Homo sapiens) [Pep-RIA-130]”: the “cellular uptake, MFI” value was 18.54 ± 1.64.

Take “EARP (listed as Homo sapiens) [Pep-RIA-89]”: the “cellular uptake, MFI” value stood at 9.13 ± 0.77.

As to “RELSEAEVRQHREARPALLTSRLRFIPK (listed as Homo sapiens) [Pep-RIA-12]”, the “cellular uptake, MFI” value worked out at 12.93 ± 0.18.

Turning to “EVRQHREARPALLTSRLRFIPKP (listed as Homo sapiens) [Pep-RIA-40]”, the “cellular uptake, MFI” value is given as 15.14 ± 3.52.

For the substance “ALLTSRLRFIP (listed as Homo sapiens) [Pep-RIA-139]”, the “cellular uptake, MFI” value was 34.19 ± 1.43.

Turning to “ARPALLTSRL (listed as Homo sapiens) [Pep-RIA-113]”, the “cellular uptake, MFI” value is recorded as 11.54 ± 1.57.

As for “RQHREARPALLTSRLRFIPKPDGLR (listed as Homo sapiens) [Pep-RIA-36]”, the “cellular uptake, MFI” value is 14.07 ± 0.41.

Turning to “AEVRQHREARPALLTSRLRFIPKPDGLR (listed as Homo sapiens) [Pep-RIA-55]”, the “cellular uptake, MFI” value worked out at 18.75 ± 1.51.

“SRL (listed as Homo sapiens) [Pep-RIA-169]”: the “cellular uptake, MFI” value amounted to 5.64 ± 0.65.

With “PALLTSRLRFI (listed as Homo sapiens) [Pep-RIA-131]”, the “cellular uptake, MFI” value came to 13.66 ± 0.87.

Consider “AEVRQHREARPALLTSRLRFIPKP (listed as Homo sapiens) [Pep-RIA-51]”, for which the “cellular uptake, MFI” value is on record as 15.13 ± 1.03.

With “RPALLTSRLRFIP (listed as Homo sapiens) [Pep-RIA-121]”, the “cellular uptake, MFI” value is 20.72 ± 0.33.

For the substance “EARPALLTSRLRFIPKPDGLRPIVNMDY (listed as Homo sapiens) [Pep-RIA-75]”, the “cellular uptake, MFI” value was found to be 26.21 ± 1.29.

On to “FIPK (listed as Homo sapiens) [Pep-RIA-102]”, for which the “cellular uptake, MFI” value turned out to be 12.64 ± 0.44.

Consider “REARPALLTSRLRFIPKPD (listed as Homo sapiens) [Pep-RIA-18]”, for which the “cellular uptake, MFI” value stood at 13.4 ± 0.34.

In the case of “LTSRLRFIPK (listed as Homo sapiens) [Pep-RIA-96]”, the “cellular uptake, MFI” value amounted to 14.96 ± 0.42.

For “LLT (listed as Homo sapiens) [Pep-RIA-152]”, the “cellular uptake, MFI” value is listed as 12.58 ± 0.47.

For “LRFIP (listed as Homo sapiens) [Pep-RIA-174]”, the “cellular uptake, MFI” value came out at 5.66 ± 0.33.

As to “HREARPALLTSRLRFIPK (listed as Homo sapiens) [Pep-RIA-2]”, the “cellular uptake, MFI” value worked out at 20.56 ± 1.23.

For “ARPALLTSRLRF (listed as Homo sapiens) [Pep-RIA-111]”, the “cellular uptake, MFI” value was 20.53 ± 0.21.

For “EARPALLTSRLRFIP (listed as Homo sapiens) [Pep-RIA-78]”, the “cellular uptake, MFI” value is 13.95 ± 0.57.

“TSRLRFIPK (listed as Homo sapiens) [Pep-RIA-97]”: the “cellular uptake, MFI” value is on record as 13.68 ± 0.37.

For the substance “RFIPK (listed as Homo sapiens) [Pep-RIA-101]”, the “cellular uptake, MFI” value turned out to be 12.35 ± 0.28.

Consider “EARPALLTSRLRFIPKPDGLRPIVNMD (listed as Homo sapiens) [Pep-RIA-74]”, for which the “cellular uptake, MFI” value is reported as 21.77 ± 2.01.

In the case of “TSRLRF (listed as Homo sapiens) [Pep-RIA-161]”, the “cellular uptake, MFI” value was determined as 14.41 ± 0.81.

For the substance “ALLTSRLRFIPK (listed as Homo sapiens) [Pep-RIA-94]”, the “cellular uptake, MFI” value is given as 21.07 ± 1.56.

As to “LTSR (listed as Homo sapiens) [Pep-RIA-109]”, the “cellular uptake, MFI” value worked out at 9.37 ± 0.31.

As for “EAR (listed as Homo sapiens) [Pep-RIA-90]”, the “cellular uptake, MFI” value was 9.77 ± 0.97.
